By inhibition is commonly meant the change of the read-out against control, counted positive when it falls. Usually Ki stands for the equilibrium dissociation constant of an inhibitor or competing ligand from its target. Usually IC50 stands for the concentration that inhibits the measured activity by half.

The structures appear in SMILES notation. Like-named read-outs stand apart in the source and are kept apart here. Some results are limits rather than exact numbers.

This is an account of results in patent US20080020973A1 (priority 2004, published 2008).

In assay [1] the target is T1, vaccinia DNA topoisomerase IB (vTopo) (Vaccinia virus, UniProt P68698). Put plainly: biochemical.
In assay [2] the target is T1, vaccinia DNA topoisomerase IB (vTopo). The assay is described as follows: biochemical. The source holds these as a separate data set.
Assay [3] deals with human topoisomerase type IB (hTopo) (Homo sapiens, UniProt P11387). Put plainly: biochemical. In kind it is biochemical.
Assay [4] has as its target T2, vTopo (Vaccinia virus, UniProt P68698).
T2 construct: made in house
Particulars: inhibition of vTopo; cited from earlier work.

A further assay concerns the target T3, human topo IB enzyme (Homo sapiens, UniProt P11387).
T3 sequence (P11387 1-765): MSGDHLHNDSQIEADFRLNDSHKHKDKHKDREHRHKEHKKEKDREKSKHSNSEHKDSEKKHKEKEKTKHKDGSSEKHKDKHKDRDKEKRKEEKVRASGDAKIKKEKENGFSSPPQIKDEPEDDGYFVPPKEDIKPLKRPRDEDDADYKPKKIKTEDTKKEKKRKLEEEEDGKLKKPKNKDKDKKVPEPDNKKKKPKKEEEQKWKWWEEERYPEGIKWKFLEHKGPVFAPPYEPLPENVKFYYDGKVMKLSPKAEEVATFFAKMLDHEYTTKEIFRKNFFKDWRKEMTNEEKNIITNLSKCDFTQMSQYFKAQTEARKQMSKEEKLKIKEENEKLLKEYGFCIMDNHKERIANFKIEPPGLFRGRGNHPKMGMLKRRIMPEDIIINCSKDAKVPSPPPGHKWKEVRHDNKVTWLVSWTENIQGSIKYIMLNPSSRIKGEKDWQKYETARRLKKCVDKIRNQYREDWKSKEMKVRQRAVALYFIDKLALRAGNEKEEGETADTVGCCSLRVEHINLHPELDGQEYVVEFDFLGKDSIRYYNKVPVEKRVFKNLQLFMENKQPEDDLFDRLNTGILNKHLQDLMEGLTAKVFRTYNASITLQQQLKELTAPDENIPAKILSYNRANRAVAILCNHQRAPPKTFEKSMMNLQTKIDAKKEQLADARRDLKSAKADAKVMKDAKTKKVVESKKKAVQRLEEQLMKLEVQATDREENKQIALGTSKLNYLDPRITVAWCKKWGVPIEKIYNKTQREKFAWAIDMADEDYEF
Particulars: cited from earlier work.

The target in another assay is T4, Y274F vTopo (Vaccinia virus, UniProt P68698, Y274F).
T4 construct: made in house
The class given is binding.

The target in assay [5] is T2, vTopo. In kind it is biochemical.
The target in assay [6] is T2, vTopo. In kind it is biochemical. This is another data set of the same source.
For assay [7], the target named is T2, vTopo. The class given is biochemical. Particulars: equilibrium cleavage.
Where [8] appears, read: read-out: % Inhibition (RNAse HTS).
[9] abbreviates: read-out: % Inhibition (plasmid SC release assay).

As for `C[C@]12CCC(=O)C=C1CCC1[C@@H]3CC[C@H](C(=O)OS(=O)(=O)c4ccc(Br)cc4)C3CC[C@@H]12` (stereo partly shown) [NSC 88915], in assay [1] (setting [8]), the inhibition at 0.5 µM is 100%. For the same compound, the inhibition at 0.006 µM in assay [2] (setting [9]) was found to be 50%. The compound further returned a Selectivity in assay [3] of 833. For the same compound, the inhibition at 5 µM in [3] (setting [9]) came to 50%.

In the case of `CO[C@@H]1[C@@H](OC(N)=O)[C@@H](O)[C@H](Oc2ccc3c(O)c(NC(=O)c4ccc(O)c(CC=C(C)C)c4)c(=O)oc3c2C)OC1(C)C` [novobiocin], the “inhibition of the relaxation reaction” value in assay [2] is “complete inhibition”. The Ki at vTopo [4] was 325 µM. Further, the “inhibition of human topo IB enzyme” value at human topo IB enzyme is listed as “no inhibition”.

On to `Cc1ccc(S(=O)(=O)C2C(C3COC(C)(C)O3)OC3OC(C)(C)OC32)cc1` (stereo not shown) [NSC 14163], for which the inhibition at 2.5 µM in assay [1] (setting [8]) turned out to be 100%. Besides, in [2] (setting [9]), the inhibition at 5 µM came out at 50%. Moreover, the Selectivity in [3] is given as >3333. In [3] (setting [9]), the inhibition at 20 µM was 0%.

For `O=C(O)C(=O)Cc1ccc2c(c1)OCO2` [NSC 112983], in assay [1], the IC50 was ~2000 nM and the affinity, expressed as Ki, was 1600 ± 600 nM. Besides, the remaining activity at 100 µM in assay [1] (0.5 h, read-out: % vTopo activity) stood at 9%. Also, the inhibition at 8 µM in [1] (read-out: inhibition of the ribonuclease reaction rate) was ~75%. In assay [2], the half-inhibitory concentration (IC50) was ~7 µM and the “inhibition of the supercoil relaxation activity of vTopo” value was “complete inhibition”. In addition, in assay [3], the “inhibition of the hTopo supercoil relaxation reaction” value is “no detectable inhibition”. The “anisotropy of Y274F-DNA complex in presence of compound” value at Y274F vTopo is given as “unchanged”. Also, the “effect on the single-turnover cleavage rate” value on vTopo [5] (8 μM) is reported as “no effect”. In addition, the cleavage rate kcl on vTopo [5] (in the presence of 8 μM 112983 (2.3±0.06 in its absence)) was determined as 1.8 ± 0.05 s⁻¹. On vTopo [6], the “% covalent complex remaining” value turned out to be 7% and the “decrease of fraction covalent complex remaining” value turned out to be 50%. For the same compound, at vTopo [7] (100 μM compound), the “decrease of percent covalently bound DNA” value amounted to 50%. Besides, the “decrease in the amount of covalent complex” value at vTopo [7] (100 μM, vs control without compound) came out at 2 fold.
